The source made the active and inactive calls. The rule behind the calls is not given here.
Assays:
[1] = molecular target: T1, von Hippel-Lindau disease tumor suppressor/Histone-lysine N-methyltransferase, H3 lysine-79 specific (Homo sapiens, UniProt Q8TEK3+P40337); assay: PROTAC activity at VHL/DOTIL in mixed-lineage leukemia rearranged (MLL-r) human THP-1 cells assessed as induction of DOT1L degradation by measuring reduction in DOTIL protein level at 3 uM incubated for 24 hrs by western blot analysis relative to control; type: cell-based; design: scale not given: the % may be the effect or the level left
Target sequence in this assay (P40337 whole entry, looked up): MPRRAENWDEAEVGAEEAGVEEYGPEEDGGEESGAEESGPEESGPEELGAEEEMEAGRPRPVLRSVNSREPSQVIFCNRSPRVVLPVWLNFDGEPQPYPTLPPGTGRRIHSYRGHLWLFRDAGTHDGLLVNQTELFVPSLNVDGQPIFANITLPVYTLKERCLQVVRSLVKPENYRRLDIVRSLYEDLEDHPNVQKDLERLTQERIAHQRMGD
Target sequence in this assay (Q8TEK3 whole entry, looked up): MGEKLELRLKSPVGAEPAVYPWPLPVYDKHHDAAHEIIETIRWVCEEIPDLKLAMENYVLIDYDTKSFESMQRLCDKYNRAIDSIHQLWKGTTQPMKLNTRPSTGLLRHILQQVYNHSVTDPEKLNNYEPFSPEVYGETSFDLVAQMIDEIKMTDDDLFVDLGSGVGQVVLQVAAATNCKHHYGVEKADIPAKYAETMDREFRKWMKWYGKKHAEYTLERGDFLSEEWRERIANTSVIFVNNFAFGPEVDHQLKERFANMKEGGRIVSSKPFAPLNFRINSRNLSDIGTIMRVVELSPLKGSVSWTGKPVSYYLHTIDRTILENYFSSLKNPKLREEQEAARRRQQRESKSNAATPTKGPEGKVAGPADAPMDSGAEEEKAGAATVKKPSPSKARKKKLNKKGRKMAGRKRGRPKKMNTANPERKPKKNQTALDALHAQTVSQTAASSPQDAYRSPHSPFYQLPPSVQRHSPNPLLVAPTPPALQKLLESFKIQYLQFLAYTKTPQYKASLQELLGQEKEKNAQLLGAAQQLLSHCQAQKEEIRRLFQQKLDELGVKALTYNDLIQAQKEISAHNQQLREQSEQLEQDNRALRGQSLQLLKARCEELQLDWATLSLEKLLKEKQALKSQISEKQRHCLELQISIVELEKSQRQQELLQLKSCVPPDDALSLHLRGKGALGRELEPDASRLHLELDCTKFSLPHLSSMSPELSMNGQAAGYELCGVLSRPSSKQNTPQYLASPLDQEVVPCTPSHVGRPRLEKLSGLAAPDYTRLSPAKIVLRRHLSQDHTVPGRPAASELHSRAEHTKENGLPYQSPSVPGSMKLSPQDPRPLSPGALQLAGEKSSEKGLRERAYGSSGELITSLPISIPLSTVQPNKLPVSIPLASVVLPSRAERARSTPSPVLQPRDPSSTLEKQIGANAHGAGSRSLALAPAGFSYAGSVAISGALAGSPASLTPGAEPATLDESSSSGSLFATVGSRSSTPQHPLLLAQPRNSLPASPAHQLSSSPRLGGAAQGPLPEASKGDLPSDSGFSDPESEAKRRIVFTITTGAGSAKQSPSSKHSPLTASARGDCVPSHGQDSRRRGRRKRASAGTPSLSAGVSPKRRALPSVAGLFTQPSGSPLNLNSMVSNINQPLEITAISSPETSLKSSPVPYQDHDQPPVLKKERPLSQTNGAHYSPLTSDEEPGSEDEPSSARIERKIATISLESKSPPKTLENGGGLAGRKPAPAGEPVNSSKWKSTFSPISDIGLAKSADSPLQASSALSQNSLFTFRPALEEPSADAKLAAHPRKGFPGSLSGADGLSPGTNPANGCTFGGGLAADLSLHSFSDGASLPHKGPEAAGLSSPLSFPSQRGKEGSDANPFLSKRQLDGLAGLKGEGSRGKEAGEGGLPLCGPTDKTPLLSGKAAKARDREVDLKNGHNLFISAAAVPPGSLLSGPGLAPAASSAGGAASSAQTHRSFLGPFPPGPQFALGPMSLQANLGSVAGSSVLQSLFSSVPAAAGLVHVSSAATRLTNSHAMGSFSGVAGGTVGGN

[2] = molecular target: T1, von Hippel-Lindau disease tumor suppressor/Histone-lysine N-methyltransferase, H3 lysine-79 specific; assay: PROTAC activity at VHL/DOT1L in mixed-lineage leukemia rearranged (MLL-r) human THP-1 cells assessed as induction of DOTIL degradation by measuring fold change in H3K79Me2 level at 3 uM incubated for 4 hrs by western blot analysis relative to control; type: cell-based
Target sequence in this assay (P40337 whole entry, looked up): as the sequence (P40337 whole entry, looked up) above
Target sequence in this assay (Q8TEK3 whole entry, looked up): as the sequence (Q8TEK3 whole entry, looked up) above

[3] = molecular target: T1, von Hippel-Lindau disease tumor suppressor/Histone-lysine N-methyltransferase, H3 lysine-79 specific; assay: PROTAC activity at VHL/DOT1L in mixed-lineage leukemia rearranged (MLL-r) human MV4-11 cells assessed as induction of DOTIL degradation by measuring fold change in DOT1L protein level at 3 uM incubated for 1 hr by western blot analysis relative to control; type: cell-based
Target sequence in this assay (P40337 whole entry, looked up): as the sequence (P40337 whole entry, looked up) above
Target sequence in this assay (Q8TEK3 whole entry, looked up): as the sequence (Q8TEK3 whole entry, looked up) above

[4] = molecular target: DNA (cytosine-5)-methyltransferase 1 (Homo sapiens) (UniProt P26358); assay: Inhibition of human DNMT1 using poly(dI-dC) and SAM as substrate at 10 uM by radiometric Hotspot assay
DNA (cytosine-5)-methyltransferase 1 (Homo sapiens), sequence (P26358 whole entry): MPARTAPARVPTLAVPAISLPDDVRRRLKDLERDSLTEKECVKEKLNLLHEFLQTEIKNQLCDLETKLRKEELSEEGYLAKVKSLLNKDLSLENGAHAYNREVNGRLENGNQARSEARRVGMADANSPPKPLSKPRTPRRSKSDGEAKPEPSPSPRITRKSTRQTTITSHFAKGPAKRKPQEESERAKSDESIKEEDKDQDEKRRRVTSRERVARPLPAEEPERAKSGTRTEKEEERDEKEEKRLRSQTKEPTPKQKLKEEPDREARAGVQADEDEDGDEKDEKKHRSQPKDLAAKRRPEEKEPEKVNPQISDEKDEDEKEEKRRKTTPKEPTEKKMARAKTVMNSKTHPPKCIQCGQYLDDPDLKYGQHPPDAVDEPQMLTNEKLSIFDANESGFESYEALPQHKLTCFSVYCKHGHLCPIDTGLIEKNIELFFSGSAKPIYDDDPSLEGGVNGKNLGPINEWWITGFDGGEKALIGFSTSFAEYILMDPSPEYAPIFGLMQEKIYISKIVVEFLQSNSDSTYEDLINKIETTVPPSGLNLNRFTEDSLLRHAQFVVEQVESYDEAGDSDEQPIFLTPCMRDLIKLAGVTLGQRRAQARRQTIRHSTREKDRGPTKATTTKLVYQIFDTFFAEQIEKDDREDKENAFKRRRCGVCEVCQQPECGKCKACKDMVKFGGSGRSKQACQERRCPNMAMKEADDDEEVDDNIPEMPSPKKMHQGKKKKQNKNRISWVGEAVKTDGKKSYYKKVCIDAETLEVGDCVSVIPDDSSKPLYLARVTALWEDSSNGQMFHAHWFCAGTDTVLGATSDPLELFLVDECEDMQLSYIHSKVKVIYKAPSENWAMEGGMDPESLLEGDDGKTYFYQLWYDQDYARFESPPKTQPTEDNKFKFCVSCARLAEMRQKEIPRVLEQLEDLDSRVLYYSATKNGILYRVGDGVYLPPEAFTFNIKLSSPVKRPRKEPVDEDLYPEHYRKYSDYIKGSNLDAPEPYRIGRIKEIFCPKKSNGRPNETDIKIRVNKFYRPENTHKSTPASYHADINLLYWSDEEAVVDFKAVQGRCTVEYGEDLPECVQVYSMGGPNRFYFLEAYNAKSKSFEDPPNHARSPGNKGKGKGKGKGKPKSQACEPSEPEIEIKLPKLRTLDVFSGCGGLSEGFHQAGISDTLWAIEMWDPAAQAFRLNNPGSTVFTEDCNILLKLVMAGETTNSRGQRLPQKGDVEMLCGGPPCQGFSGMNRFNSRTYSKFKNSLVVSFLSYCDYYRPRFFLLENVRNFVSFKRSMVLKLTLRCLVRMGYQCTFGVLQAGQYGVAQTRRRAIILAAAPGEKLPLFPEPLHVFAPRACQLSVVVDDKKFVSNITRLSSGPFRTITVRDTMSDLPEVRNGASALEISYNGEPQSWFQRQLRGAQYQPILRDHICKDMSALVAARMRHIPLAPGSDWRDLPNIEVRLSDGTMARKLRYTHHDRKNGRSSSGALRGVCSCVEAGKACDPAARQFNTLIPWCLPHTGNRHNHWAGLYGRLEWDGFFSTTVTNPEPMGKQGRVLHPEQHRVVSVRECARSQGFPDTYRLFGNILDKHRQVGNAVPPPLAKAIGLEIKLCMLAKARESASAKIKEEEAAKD

[5] = molecular target: T1, von Hippel-Lindau disease tumor suppressor/Histone-lysine N-methyltransferase, H3 lysine-79 specific; assay: PROTAC activity at VHL/DOT1L in mixed-lineage leukemia rearranged (MLL-r) human THP-1 cells assessed as induction of DOTIL degradation by measuring fold change in H3K79Me2 level at 3 uM incubated for 2 hrs by western blot analysis relative to control; type: cell-based
Target sequence in this assay (P40337 whole entry, looked up): as the sequence (P40337 whole entry, looked up) above
Target sequence in this assay (Q8TEK3 whole entry, looked up): as the sequence (Q8TEK3 whole entry, looked up) above

MV4-11 = assay: Effect on DOTIL mRNA expression in mixed-lineage leukemia rearranged (MLL-r) human MV4-11 cells at 3 uM incubated for 24 hrs by RT-qPCR analysis; type: functional, cell-based
[6] = molecular target: T1, von Hippel-Lindau disease tumor suppressor/Histone-lysine N-methyltransferase, H3 lysine-79 specific; assay: PROTAC activity at VHL/DOT1L in mixed-lineage leukemia rearranged (MLL-r) human MV4-11 cells assessed as induction of DOT1L degradation incubated for 24 hrs by western blot analysis; type: cell-based
[7] = molecular target: T1, von Hippel-Lindau disease tumor suppressor/Histone-lysine N-methyltransferase, H3 lysine-79 specific; assay: PROTAC activity at VHL/DOT1L in mixed-lineage leukemia rearranged (MLL-r) human THP-1 cells assessed as induction of DOTIL degradation by measuring fold change in DOT1L protein level at 3 uM incubated for 8 hrs by western blot analysis relative to control; type: cell-based
Target sequence in this assay (P40337 whole entry, looked up): as the sequence (P40337 whole entry, looked up) above
Target sequence in this assay (Q8TEK3 whole entry, looked up): as the sequence (Q8TEK3 whole entry, looked up) above

[8] = molecular target: T1, von Hippel-Lindau disease tumor suppressor/Histone-lysine N-methyltransferase, H3 lysine-79 specific; assay: PROTAC activity at VHL/DOT1L in mixed-lineage leukemia rearranged (MLL-r) human MV4-11 cells assessed as induction of DOTIL degradation by measuring fold change in DOT1L protein level at 3 uM incubated for 8 hrs by western blot analysis relative to control; type: cell-based
Target sequence in this assay (P40337 whole entry, looked up): as the sequence (P40337 whole entry, looked up) above
Target sequence in this assay (Q8TEK3 whole entry, looked up): as the sequence (Q8TEK3 whole entry, looked up) above

Activity [1]: 77% | fold change (FC) [2]: 1.08 | fold change (FC) [3]: 1.26 | inhibition [4]: inactive | fold change (FC) [5]: 0.97 | Activity [6]: Dose-dependent-effect | DC50 [6]: 25 nM | fold change (FC) [7]: 0.29 | fold change (FC) [8]: 0.15
Structure (SMILES): Cc1ncsc1-c1ccc([C@H](CC(=O)NCCCCCCNC(=O)COc2nc(N)nc(Nc3cc(S(N)(=O)=O)ccc3N[C@@H](c3cccc4c3OC(F)(F)O4)c3ncccc3Cl)n2)NC(=O)[C@@H]2C[C@@H](O)CN2C(=O)[C@@H](NC(=O)C2(F)CC2)C(C)(C)C)cc1
Activity (MV4-11): inactive
